Test results: ChEMBL document CHEMBL4834490, “Novel Bromodomain Inhibitors for Treating Cancer, Fibrosis, and Inflammatory Disorders” (ACS Med Chem Lett, 2021)

Legend:
[1] = target: T1, Bromodomain-containing protein 4 (Homo sapiens, UniProt O60885); assay: Inhibition of binding of N-terminal His-tagged human full length recombinant BRD4 (2 to 1362 residues) expressed in baculovirus-infected Sf9 cells with acetylated histone H4 peptide (1 to 21) preincubated for 30 mins followed by H4 ligand addition and measured after 30 mins AlphaScreen assay
[2] = target: T1, Bromodomain-containing protein 4; assay: Binding affinity to DNA-tagged human BRD4 (BD1,2) isoform long expressed in Escherichia coli BL21 incubated for 1 hr by competitive ligand binding BROMOscan assay

Row | IC50 [1] [nM] | Kd [2] [nM] | SMILES
1 | < 100 | < 100 | Cc1cc(-c2ccc3nc(-c4cnn(CC(C)(C)O)c4)nc(N4CCOC[C@@H]4c4ccccc4)c3c2)cn(C)c1=O
2 | < 100 | < 100 | Cc1cc(-c2ccc3nc(-c4cnn(CC(C)(C)O)c4)nc(N4CCOC[C@@H]4c4ccc(F)cc4)c3c2)cn(C)c1=O
3 | 100 | < 100 | Cc1cc(-c2ccc3nc(-c4cnn(CC(C)(C)O)c4)nc(N4CCOC[C@@H]4C4CC4)c3c2)cn(C)c1=O
4 | < 100 | < 100 | Cn1cc(-c2ccc3nc(-c4cnn(CC(C)(C)O)c4)nc(N4CCOC[C@@H]4c4ccc(F)cc4)c3c2)c2cc[nH]c2c1=O
5 | < 100 | < 100 | Cn1cc(-c2ccc3nc(-c4cnn(CC(C)(C)O)c4)nc(N4CCOC[C@@H]4C4CC4)c3c2)c2cc[nH]c2c1=O
6 | < 100 | < 100 | Cn1cc(-c2ccc3nc(-c4cnn(CC(C)(C)O)c4)nc(N4CCOC[C@@H]4c4ccccc4)c3c2)c2cc[nH]c2c1=O
